This is an account of results in patent US12350308B2, “Phosphorylcholine conjugates and uses thereof” (TPCERA LTD., priority 2013, dated 2025).

Assay [1] deals with THP-1 cells. Description: Shift of M1 polarized macrophages to M2 macrophages secreting IL-10. The format is cell-based, human. The conditions noted are these: 5 μg/ml for 72 hrs; in comparison to OVA-PC. Here is the method: The relative expression of the anti-inflammatory cytokine IL-10 was analyzed in human macrophages treated with TD-PC (TD-PC), and PC-Ovalbumin (OVA-PC). Specifically, THP-1 cells (a monocytic cell line established from human monocytic leukemia) were induced to differentiation into adherent macrophage-like phenotype (M0) by culturing the cells (10^5 cells/ml) in the presence of phorbol 12-myristate 13-acetate (PMA; 80 nM) and VD3 (100 nM). For inducing differentiation from M0 to M1 (M1 polarized macrophages) the cells were further incubated with LPS (1 μg/ml), IFNγ (20 ng/ml). For shifting from M1 to M2 macrophages (M2 polarized macrophages) the cells were washed and further incubated with IL-4 (10 ng/ml) and IL-13 (10 ng/ml) for 72 hours.
In order to determine whether TD-PC, TD, PC or PC-OVA can induce a shift form M1 cells to M2 macrophages secreting anti-inflammatory cytokine IL-10, M1 polarized macrophages were incubated with each molecule or conjugate at 5 μg/ml for 72 hrs.

The subject of assay [2] is CIA mice. Nature of the assay: Arthritis score in CIA mice treated orally or s.c. with TD-PC. The conditions noted are these: day 31. The format is in vivo. An excerpt:
The main characteristic of rheumatoid arthritis is joint deformation due to high inflammation. The TD-PC effect on arthritis score in CIA mice was monitored. […] Arthritis score was lower in both groups of TD-PC treatment (oral and s.c.) starting two weeks after disease induction—day 14, until the mice were sacrificed—day 31.

Assay [3] deals with colon lysates. Description: Cytokine expression in colon lysates of colitis mice (immunoblot). The format is in vivo. Here is the method:
The expression of the proinflammatory cytokines (TNFα, IL-17, IL-113) and anti-inflammatory cytokine IL-10 was analyzed by immunoblot in colon lysates.
On the technique in general: A western blot detects proteins with antibodies after separation by electrophoresis.

Assay [4] concerns splenocytes of NZBW/F1 female mice. Description: Cytokine mRNA in splenocytes of lupus mice treated with TD-PC (RT-PCR). The format is in vivo. The conditions noted are these: week 30; vs PBS. Here is the method:
NZBW/F1 female mice having lupus were treated with TD-PC (SEQ ID NO: 25 conjugated to PC) or the corresponding control treatments. Mice were sacrificed at week 30, and their splenocytes were studied in-vitro for the expression of pro-inflammatory cytokines (IFNγ, IL-17) and anti-inflammatory (TGFβ, IL-10) cytokines using RT-PCR. […] In contrast, TD-PC increased the mRNA expression of the anti-inflammatory cytokine TGFβ in the (p<0.001) compared to the mRNA expressed by splenocytes derived from PBS-treated mice (FIG. 24A).

Assay [5] concerns CD4+CD25+FOXP3+ Tregs. Description: Treg expansion in spleen cells of lupus mice treated with TD-PC (FACS). The format is in vivo. As to conditions: gating on CD4+ T cells; PBS 4%. An excerpt:
The percentage of CD4+CD25+FOXP3+ Tregs phenotype subset in spleen cells following treatment with TD-PC, tuftsin derivative (SEQ ID NO: 25), PC or PBS, is elucidated in FIGS. 25A-25B.

Assay [6] relates to NZBxW/F1 lupus mice. Description: Survival of lupus mice treated with TD-PC (Kaplan-Meier). The format is in vivo. The conditions noted are these: already at week 24. Here is the method: A main complication of lupus nephritis is a short survival time due to severe kidney failure. Therefore, the survival time of mice treated either with TD-PC or with PC, tuftsin derivative (SEQ ID NO: 25) or PBS (control) was analyzed.

Assay [7] has as its system female NZBxW/F1 lupus prone mice. Description: Proteinuria onset and immune complex deposits in lupus prone mice treated with TD-PC. The format is in vivo. As to conditions: s.c., prophylactic from week 14. The source says: To examine the potential protective effect of TD-PC (SEQ ID NO: 25 conjugated to PC), female NZBxW/F1 lupus prone mice received subcutaneous injections (s.c) of the TD-PC conjugate, phosphorylcholine (PC), tuftsin derivative (SEQ ID NO: 25) or PBS (control) via a prophylactic protocol starting at week 14, before the clinical onset of lupus (n ¼ 15 per group).

Assay [8] has as its system CD4+CD25+FOXP3+ Treg cells. Description: Treg expansion in splenocytes of mice with established CIA (FACS). As to conditions: isolated splenocytes; PBS 1.4%. The format is in vivo. The source says: The frequency of CD4+CD25+FOXP3+ Treg cells subset in isolated splenocytes from mice treated with TPC, PBS, TD (SEQ ID NO: 25), PC, TD+PC or untreated is elucidated in FIGS. 33A and 33B. […] Representative data of the CD4+CD25+FOXP3+ levels in splenocytes derived from TD-PC, PBS, TD (SEQ ID NO: 25), PC and TD+PC treated mice and the untreated group, gating on CD4+ T cells are presented in FIG. 33B.

Assay [9] relates to splenocytes derived from CIA mice. Description: Cytokine secretion in-vitro by splenocytes of mice with established CIA. The format is in vivo. The conditions noted are these: splenocyte culture fluids. Here is the method:
Secretion, in-vitro, of pro-inflammatory and anti-inflammatory cytokines by splenocytes derived from CIA mice treated with TD-PC, PBS, TD, PC, TD+PC or untreated mice was evaluated (FIGS. 32A-32D). The following cytokines secretions were examined: pro-inflammatory IL-1β (FIG. 32A), IL-17 (FIG. 32B), IL-6 (FIG. 32C), TNF-α (FIG. 32D) and anti-inflammatory IL-10 (FIG. 32E).

*1 amine or outer side, *2 acyl side, *3 side chain or, on linkers, in order; H or OH if unused. Where a SMILES comes first, the peptide text is derived from it. [ ]: non-standard residue; d: D form. X1 = C[N+](C)(C)CCOP(=O)([O-])Oc1ccc(N=Nc2cc(C[C@H](N[*:1])C(=O)[*:2])ccc2O)cc1

In the case of `C[C@@H](O)[C@H](N)C(=O)N[C@@H](CCCCN)C(=O)N1CCC[C@H]1C(=O)N[C@@H](CCCNC(=N)N)C(=O)NCC(=O)N[C@@H](Cc1ccc(O)c(N=Nc2ccc(OP(=O)([O-])OCC[N+](C)(C)C)cc2)c1)C(=O)O` [TD-PC, Thr-Lys-Pro-Arg-Gly-Tyr-PC] (H-TKPRG[X1]-OH), in assay [1], the “shift of M1 macrophages to M2 macrophages secreting IL-10” value is on record as “significant shift”. In addition, the mean arthritis score in [2] (TD-PC treated groups (oral and s.c.), control 11.8) is recorded as 1.5 (ranged from 0 to 4). Besides, in assay [2] (oral, PBS oral 12.6±1.14), the mean arthritis score was 1.6±1.5. The mean arthritis score in assay [2] (s.c., PBS s.c 11±1.22) came to 1.4±0.84. Besides, in assay [3], the “IL-1β expression in colon lysates” value is listed as “suppressed”, the “IL-10 expression in colon lysates” value was “Significant increased”, the “IL-17 expression in colon lysates” value is on record as “suppressed” and the “TNFα expression in colon lysates” value was “suppressed”. Moreover, in [4], the “mRNA expression of IFNγ in splenocytes” value is “inhibited” and the “mRNA expression of TGFβ in splenocytes” value is listed as “increased”. Besides, the “CD4+CD25+FOXP3+ Tregs in spleen cells” value in assay [5] amounted to 18%. Besides, the “percentage of death number vs PBS injected mice” value in [6] is “significant difference”. In assay [7], the “immune complex (IC) deposits in the mesangium / nephritis class” value was “class-II nephritis”. In [7] (age of 30 weeks, PBS 72%), the “mice with proteinuria above 100 mg/dl” value is listed as 21%. Further, in [8], the “mean percentage of CD4+CD25+FOXP3+ Treg cells” value amounted to 8.75%. Also, the “mean IL-10 level” value in assay [9] (PBS 298) is 1745 pg/mL. In addition, the “mean IL-6 level” value in assay [9] (PBS 840) came to 480 pg/mL. Also, the “mean IL-1β level” value in [9] (PBS 883) came to 320 pg/mL. In addition, in assay [9] (PBS 1073), the “mean TNF-α level” value was found to be 342 pg/mL. The “mean IL-17 level” value in assay [9] (PBS 2170) is 1770 pg/mL.
